Laboratory results: publication PMC9428891 (Frontiers in Pharmacology, 2022)

How the values were obtained:
[1] = target: T1, acetylcholinesterase (AChE) (Electrophorus electricus, UniProt O42275); experiment: biochemical; set-up: V max / V maxapp: unit not given here; conditions: for K m app / V maxapp: in the presence of compound; for Ki: read-out: K i ± SEM; for K m: substrate ACh
T1 construct: purchased Sigma Aldrich C3389-2KU
Experimental: Enzyme-substrate (ES) is the complex of AChE and acetylcholine, while P represents the product formed after the reaction’s completion. Dissociation constant values were calculated through Dixon plots, their secondary replots, and the Lineweaver-Burk plot ([Khan et al., 2021]).
The values of K m, K i, and V max were determined from Dixon and Lineweaver-Burk plots using no linear regression equation.
GraFit software ([Khan et al., 2021]) was utilized for plotting graphs. The values of the correlation coefficients, slopes, intercepts, and their standard errors were determined by the linear regression equation using the same program.
During kinetic studies, the reaction rate was measured and the effect of different concentrations of a substrate on the enzyme was investigated. The kinetic study of enzymes helped to determine the catalytic mechanism of enzymes. […] The rate of reaction [V] was plotted against various substrate concentrations [S] at constant enzyme concentration. Initially, the rate of reaction [V] increases as substrate concentration increases, and at higher [S], the enzyme becomes saturated, and the rate of reaction reaches V max, which is referred to as the maximum rate of reaction.
The dissociation constant K i values were found using three different methods. Primarily, from the Lineweaver-Burk plot, which is the reciprocal rate of reaction (1/V) versus reciprocal of substrate concentration (1/S), helps to determine the effect of inhibitor on the values of K m and V max. Secondly, the Dixon plot is the plot between the reciprocal of initial velocities (1/V) versus different concentrations of the compound. Finally, from secondary replot, the slopes of each line versus various concentrations of all compounds. Kinetic studies were carried out to determine the inhibition type, which helps to specify the mechanism of action of enzyme inhibition and the inhibitor binding moieties.

[2] = Viability of human neutrophils (WST-1 cytotoxicity test); format: cell-based; conditions: human neutrophils 1 × 10^7 cells/ml
Experimental: A cytotoxicity test was performed to determine the adverse effect of tested compounds on humans using neutrophil cells.
The absorbance is the mean of five experimental replicates.
The % viability of neutrophils was measured by the following formula: Percentage viability: […].

[3] = target: T1, acetylcholinesterase (AChE); experiment: biochemical; conditions: triplicate
Experimental: AChE inhibitory activity was evaluated as described previously with few modifications using a microtiter plate reader (Molecular Device, CA, United States) ([Hasan et al., 2005]). Initially, 100 mM of sodium phosphate buffer (140 µl) pH 8, 0.25 mM DTNB (10 µl), 0.5 mM of synthetic compounds dissolved in 20 µl of ethanol and AChE (20 µl) were mixed and incubated for 15–20 min at room temperature in a microtiter plate. Finally, 10 µl of substrate ACh (0.4 mM) was added and incubated at room temperature for 4–6 min. The reaction started after the addition of ACh was hydrolyzed by AChE in the presence of DTNB; a yellow-colored 5-thio-2-nitrobenzoate anion was formed, which indicates the reaction completion and was read at a wavelength of 412 nm. All experiments were performed in triplicate and were analyzed using the SoftMax Pro6.3 program (Molecular Device, CA, United States).
Percentage inhibition was calculated by % inhibition = (O.D control-O.D test well) / O.D control)×100.
IC50 was determined at various concentrations, and EZ-Fit EK was employed to calculate the IC50 values of the test compounds (Perrella Scientific Inc., Amherst, MA, United States).
In the current study, electric eel AChE was used in the laboratory to perform an AChE inhibitory assay, but for computational analysis, we used hAChE (4EY6). Therefore, homology modeling was performed to check the similarity between the electric eel and hAChE.

[4] = test system: isolated rabbit jejunum, K+-induced contractions; experiment: Calcium antagonistic activity: relaxation of high K+ (80 mM) contracted isolated rabbit jejunum; conditions: mean ± SEM, n = 3
Experimental: (§1) The spasmolytic activity of the inhibitors was evaluated using isolated contracting rabbit jejunum ([Rahman et al., 2019]). Rabbits used in the current study were provided by Aga Khan Medical University, Karachi, Pakistan, weighing between 1.5 and 2.0 kg. The standard operating protocol has already been defined ([Choudhary et al., 2005]).
(§2) Calcium antagonistic activity was also performed and confirmed the relaxation of 80 mM K^+ produced contraction.
Schiff bases were also evaluated at high K^+ (80 mM) contracted isolated rabbit jejunum preparations for their spasmolytic effect, which was relaxed by all compounds (Table 3). […] Schiff bases represent a class of compounds showing a wide range of bioactivities, such as antimicrobial and anticancer activities. Schiff base compounds are the products of primary amines and condensation of carbonyl compounds, which are extensively investigated owing to their wide range of biomedical applications ([Sztanke et al., 2013]). […] The antispasmodic and Ca^+2 antagonist activity of Schiff base compounds was first reported and could be linked to the azomethine bond.

[5] = test system: isolated rabbit jejunum, spontaneous contractions; experiment: Spasmolytic activity on spontaneously contracting isolated rabbit jejunum; conditions: mean ± SEM, n = 3
Experimental: as §1, §2

T1 sequence (O42275 24-633): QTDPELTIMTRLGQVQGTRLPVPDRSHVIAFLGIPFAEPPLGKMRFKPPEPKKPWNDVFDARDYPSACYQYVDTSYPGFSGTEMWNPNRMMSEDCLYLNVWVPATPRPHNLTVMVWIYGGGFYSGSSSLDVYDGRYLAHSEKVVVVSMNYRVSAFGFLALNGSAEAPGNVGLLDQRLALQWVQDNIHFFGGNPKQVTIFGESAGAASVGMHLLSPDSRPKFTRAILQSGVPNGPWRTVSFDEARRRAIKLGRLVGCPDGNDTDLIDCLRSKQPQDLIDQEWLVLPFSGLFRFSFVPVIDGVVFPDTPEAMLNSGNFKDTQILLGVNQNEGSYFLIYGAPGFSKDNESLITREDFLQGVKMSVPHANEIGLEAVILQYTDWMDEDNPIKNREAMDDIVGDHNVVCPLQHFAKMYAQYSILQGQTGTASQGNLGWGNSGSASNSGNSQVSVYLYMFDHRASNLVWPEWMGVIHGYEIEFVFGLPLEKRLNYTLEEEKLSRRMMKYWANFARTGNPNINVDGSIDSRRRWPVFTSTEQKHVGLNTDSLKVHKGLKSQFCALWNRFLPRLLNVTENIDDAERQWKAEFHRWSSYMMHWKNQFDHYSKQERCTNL

Row | Compound | Type of inhibition [1] | V max [1] | K m app [1] [µM] | V maxapp [1] | Ki [1] [µM] | K m [1] [µM] | viability at 30 min, 491.014 µM ([2]; neutrophils isolated from human whole blood, Conc. 491.014 µM) [%] | IC50 [3] [µM] | Effective Dose (ED50), spasmolytic effect, High K+ [4] | viability at 30 min, 501.907 µM ([2]; neutrophils isolated from human whole blood, Conc. 501.907 µM) [%] | Effective Dose (ED50), spasmolytic effect, Spontaneous [5] [µM] | viability at 30 min, 539.913 µM ([2]; neutrophils isolated from human whole blood, Conc. 539.913 µM) [%] | viability at 30 min, 456.058 µM ([2]; neutrophils isolated from human whole blood, Conc. 456.058 µM) [%] | viability at 30 min, 696.005 µM ([2]; Conc. 696.005 µM) [%]
1 | CCSc1nc2ccccc2n1CC(=O)N/N=C/c1ccc(Cl)cc1Cl [Compound 10] | Non-competitive | 5.0 | 120 | 2.1 | 17 ± 1.3 | 120 | 90.1 ± 2.3 | 51.23 ± 0.2 | 1,620.347 ± 0.04 µM | – | – | – | – | –
2 | CCSc1nc2ccccc2n1CC(=O)N/N=C\c1ccc(OC)cc1OC [Compound 11] | Non-competitive | 5.0 | 120 | 2.6 | 14 ± 1.6 | 120 | – | 37.64 ± 0.2 | 727.765 ± 0.09 µM | 98 ± 1 | 326.239 ± 0.01 | – | – | –
3 | CCSc1nc2ccccc2n1CC(=O)N/N=C/c1cccc(O)c1O [Compound 13] | Non-competitive | 5.0 | 120 | 2.3 | 19 ± 1.7 | 120 | – | 50.58 ± 0.3 | 836.865 ± 0.05 µM | – | 458.926 ± 0.01 | 77.22 ± 0.5 | – | –
4 | CCSc1nc2ccccc2n1CC(=O)N/N=C/c1c2ccccc2cc2ccccc12 [Compound 14] | Non-competitive | – | 120 | – | – | 120 | – | 51.23 ± 0.2 | 980.526 ± 0.05 µM | – | 592.876 ± 0.12 | – | 66.6 ± 4 | –
5 | COc1ccc2c3c1O[C@H]1C[C@@H](O)C=C[C@@]31CCN(C)C2 [Galanthamine, reference compound] | – | – | – | – | – | – | – | – | – | – | – | – | – | 96 ± 2
